Assay results from patent US20250188058A1, “NEW FORMS OF N-(5-((6,7-DIMETHOXYQUINOLIN-4-YL)OXY)PYRIDIN-2-YL)-1-PROPYL-4-(2,2,2-TRIFLUOROETHOXY)-1H-PYRAZOLE-3-CARBOXAMIDE HYDROCHLORIDE” (QURIENT CO., LTD., priority 2022, published 2025).

What was measured:
[1] = Humidity stress using crystalline material (HCl form C); assay type: physicochemical; conditions: 8 days
Method: Approximately 25 mg of […] […] HCl form C material and were stressed for 8 days. All samples remained as […] HCl form C material.

[2] = Dynamic Vapour Sorption (DVS) hygroscopicity; assay type: physicochemical; conditions: for total weight gain between 40-80% RH: DVS isothermal plot, 25° C.
Method: Dynamic Vapour Sorption (DVS) was performed using a Hiden Analytical Instruments IGAsorp Vapour Sorption Balance. Approximately 30 mg of sample was placed into a wire-mesh vapour sorption balance pan, loaded into the IGAsorp vapour sorption balance and held at 25° C.±0.1° C. The sample was subjected to a step profile from o to 90% RH at 10% increments, followed by desorption from 90% RH to 0% RH at 10% increments. The equilibrium criterion was set to 99.0% step completion within a minimum of 60 minutes and a maximum of 5 hours for each increment. The weight change during the sorption cycle was monitored, allowing for the hygroscopic nature of the sample to be determined. The data collection interval was in seconds.

[3] = Stress at 40° C./75% relative humidity for 15 days; assay type: physicochemical; conditions: 40° C./75% RH
Method: HCl form C was stressed at 40° C./75% relative humidity for 15 days.
Form A was stressed at 40° C./75% for 15 days. […] Solvent was not detected.

[4] = Aqueous solubility of crystalline salts of Q702 (slurried overnight in deionised water, HPLC); conditions: crystalline salts slurried overnight in deionised water (pH = 6.8); for pH of solution: solution pH measured
Method: (§1) Solubility was measured by a) solubility estimation by aliquot addition and b) HPLC: • a) Solubility estimation by aliquot-addition
(§2) Samples were held at ambient temperature for 18 hours to maximize the chance of precipitation. Any recoverable solids were analyzed by XRPD.
(§3) The HPLC method used to determine equilibrium solubility in a variety of solvents is outlined. […] A phenomenex Kinetex column was used with a particle size of 2.6 μm.

[5] = Long term stability of Form A of Q702 HCl salt; assay type: physicochemical
Method: Form A of […] HCl salt was tested for long term stability to 24 months.

[6] = Pharmacokinetic study in plasma after oral administration; assay type: in vivo, male SD rats; conditions: 30 mg/kg; for AUC(0-t) / Cmax / Tmax / half-life: vehicle water
Method: In this example, pharmacokinetic studies are performed using the form A of the HCl-salt of Q702 and the free base (FB) thereof in plasma, following oral administration of such form A and free base to male SD rats.
Appropriate amounts of the form A of Q702 HCl or of free base were accurately weighed and mixed with appropriate volume of vehicle (water) to get a clear solution or uniform suspension. Male SD rats were dosed with a nominal dose of 30 mg/kg body weight. After dosing, 0.2 mL blood was collected per time point at time points o h, 0.083 h, 0.25 h, 0.5 h, 1 h, 2 h, 4 h, 8 h, 12 h, and 24 h. For such blood collection, blood was collected from the jugular vein or other suitable site of each animal into pre-chilled plastic microcentrifuged tubes containing 5 μL of 1000 IU heparin Na as anti-coagulant. Blood samples were processed for plasma by centrifugation at approximately 4° C., 3200 g for ten minutes. Plasma was collected and transferred into pre-labelled polypropylene tubes, snap-frozen over dry ice and kept at −60° C. or lower until LC-MS/MS-analysis was performed. LC-MS/MS methodology was performed using a calibration curve with at least 6 non-zero calibration standards.
Plasma concentrations versus time were plotted and analysed by non-compartmental approaches using the Phoenix WinNonlin 6.3 software program. Related pharmacokinetic parameters were calculated according to dosing route, e. g.

[7] = Solubility estimation by aliquot addition in solvents; assay type: physicochemical; conditions: organic solvent or mixture, thermodynamic from solid
Method: The aliquot volumes were typically 100-1000 μL. Complete dissolution of the test material was determined by visual inspection. The solubility was estimated from these experiments based on the total solvent used to provide complete dissolution. […] From the infrared (IR) transmission data of the sample vials, dissolution and precipitation events were recorded as the point of complete transmission of IR and the onset of turbidity by IR respectively. […] Any recoverable solids were analyzed by XRPD. […] HCl salt was estimated in 9 solvent systems using the aliquot addition method.

[8] = physchem; conditions: pH 6.8, water, thermodynamic from solid
Method: as §1, §2, §3

[9] = Humidity stress using amorphous material; assay type: physicochemical; conditions: 6 days
Excerpt: X-ray amorphous material generated from freeze drying was exposed to various controlled humidity conditions for 6 days before analysis by XRPD. Both samples remained as amorphous material.

[10] = Thermal stressing of amorphous Q702 HCl salt; assay type: physicochemical; conditions: 50° C., 7 days, under nitrogen in a sealed vial

Molecule: CCCn1cc(OCC(F)(F)F)c(C(=O)Nc2ccc(Oc3ccnc4cc(OC)c(OC)cc34)cn2)n1.Cl [HCl form C]
- % Weight change ([1]; 40° C./75% RH stress): −1.96%
- weight loss ([1]; 40° C./75% RH): 1.96%
- % Weight change ([1]; 75% RH stress): −11.05%
- weight loss ([1]; 75% RH stress): 11.05%
- % Weight change ([1]; 98% RH stress): +2.99%
- % Weight change ([1]; 98% RH stress, listed as Q702 HCl form C): 2.99%
- total weight gain between 40-80% RH [2]: 0.7 % w/w
- XRPD analysis of post DVS sample ([2]; after DVS analysis): no physical change in the sample was detected
- hygroscopicity, European Pharmacopoeia classification ([2]; based on DVS weight gain 40-80% RH): slightly hygroscopic
- XRPD after stress [3]: remained as HCl salt form C

Molecule: O=C(O)CCC(=O)C(=O)O [Ketoglutarate]
- pH of solution [4]: 2.91

Molecule: CCCn1cc(OCC(F)(F)F)c(C(=O)Nc2ccc(Oc3ccnc4cc(OC)c(OC)cc34)cn2)n1.Cl [Q702 HCl form A, N-(5-((6,7-dimethoxyquinolin-4-yl)oxy)pyridin-2-yl)-1-propyl-4-(2,2,2-trifluoroethoxy)-1H-pyrazole-3-carboxamide hydrochloride]
- total weight gain between 40-80% RH ([2]; hydrochloride): 0.5 % w/w
- XRPD after stress ([3]; hydrochloride): remained as form A
- Assay ([5]; 25 ± 2° C./60 ± 5% RH, 12 M): 94.0%
- Purity ([5]; 25 ± 2° C./60 ± 5% RH, 12 M): 100.0%
- XRPD ([5]; 25 ± 2° C./60 ± 5% RH, 12 M): Consistent
- Assay ([5]; 25 ± 2° C./60 ± 5% RH, 24 M): 94.6%
- Purity ([5]; 25 ± 2° C./60 ± 5% RH, 24 M): 99.9%
- XRPD ([5]; 25 ± 2° C./60 ± 5% RH, 24 M): Consistent
- Assay ([5]; 40 ± 2° C./75 ± 5% RH, 6 M): 94.8%
- Purity ([5]; 40 ± 2° C./75 ± 5% RH, 6 M): 99.9%
- XRPD ([5]; 40 ± 2° C./75 ± 5% RH, 6 M): Consistent
- Assay ([5]; Initial): 95.9%
- Purity ([5]; Initial): 99.9%
- XRPD ([5]; Initial): Consistent
- long term stability (XRPD results) ([5]; tested to 24 months): stable to 24 months
- plasma exposure level higher than that of the free base (mean AUC-values) ([6]; versus Q702 free base): 33%
- AUC(0-t) ([6]; male, SD, rat, plasma): 430 µg·h/mL
- Cmax ([6]; male, SD, rat, plasma): 37000 ng/mL
- Tmax ([6]; male, SD, rat, plasma): 2.83 h
- half-life ([6]; male, SD, rat, plasma): 10.3 h
- bioavailability ([6]; male, SD, rat, plasma, test = form A of HCl-salt, ref = free base of Q702, read-out: relative bioavailability): 144%

Molecule: CCCn1cc(OCC(F)(F)F)c(C(=O)Nc2ccc(Oc3ccnc4cc(OC)c(OC)cc34)cn2)n1.Cl [Q702 HCl salt, N-(5-((6,7-dimethoxyquinolin-4-yl)oxy)pyridin-2-yl)-1-propyl-4-(2,2,2-trifluoroethoxy)-1H-pyrazole-3-carboxamide hydrochloride]
- solubility ([7]; Acetone, 20° C., read-out: Solubility Range): < 20 mg/mL
- solubility ([7]; Acetonitrile, 20° C., read-out: Solubility Range): < 20 mg/mL
- solubility ([7]; Dichloromethane, 20° C., read-out: Solubility Range): 66 to 100 mg/mL
- solubility ([7]; Dimethyl sulfoxide, 20° C., read-out: Solubility Range): > 201 mg/mL
- solubility ([7]; Ethanol, 20° C., read-out: Solubility Range): 67 to 101 mg/mL
- solubility ([7]; Ethyl acetate, 20° C., read-out: Solubility Range): < 20 mg/mL
- solubility ([7]; Methanol, 20° C., read-out: Solubility Range): 49 to 66 mg/mL
- solubility ([7]; Methyl tert-butyl ether, 20° C., read-out: Solubility Range): < 20 mg/mL
- solubility ([7]; Tetrahydrofuran, 20° C., read-out: Solubility Range): < 20 mg/mL
- solubility ([7]; in four of the 9 solvents at ambient temperature, read-out: solubility): > 20 mg/mL
- solubility [8]: 1.95 mg/mL

Molecule: CCCn1cc(OCC(F)(F)F)c(C(=O)Nc2ccc(Oc3ccnc4cc(OC)c(OC)cc34)cn2)n1 [Q702 free base, N-(5-((6,7-dimethoxyquinolin-4-yl)oxy)pyridin-2-yl)-1-propyl-4-(2,2,2-trifluoroethoxy)-1H-pyrazole-3-carboxamide]
- AUC(0-t) ([6]; male, SD, rat, plasma): 323 µg·h/mL
- Cmax ([6]; male, SD, rat, plasma): 33800 ng/mL
- Tmax ([6]; male, SD, rat, plasma): 3.33 h
- half-life ([6]; male, SD, rat, plasma): 10.9 h

Molecule: CCCn1cc(OCC(F)(F)F)c(C(=O)Nc2ccc(Oc3ccnc4cc(OC)c(OC)cc34)cn2)n1.Cl [amorphous Q702 HCl salt]
- XRPD after humidity stress ([9]; 40° C./75% RH stress): amorphous
- XRPD after humidity stress ([9]; 59% RH stress): amorphous
- XRPD after thermal stress ([10]; listed as Amorphous Q702 HCl salt): remained amorphous
- XRPD after thermal stress ([10]; listed as amorphous): amorphous

Molecule: Tosylate
- Aq Solub [4]: 0.026 mg/mL
- pH of solution [4]: 4.26
